Measured values taken from patent US10703698B2, “Compounds which activate estrogen receptors and compositions and methods of using the same” (The Board of Trustees of the University of Illinois, priority 2016, dated 2020).
“Also recorded” adds a separate entry of the source.

What was measured:
MCF-7 cells [1] = test: RNA-Seq of MCF-7 cells treated with OA with and without PaPE-1; format: cell-based, human; conditions: 100 nM OA, 24 h
Procedure: FIG. 38. Identification of genes induced by OA and PaPE-1's effect on the gene regulation. (A) RNA-Seq analysis of gene expression changes induced by OA and OA+PaPE1. Heat map of the genes with significant changed expression. MCF-7 cells were treated with Veh or 100 nM OA with and without 1 μM PaPE-1 for 24 h. RNA was isolated and RNA-Seq was performed using 2 samples from each treatment group. Differentially regulated genes were determined with p<0.05 and expression fold change >2. (B) Clusters from A. regulated by OA and reversed by PaPE-1. The average gene expression level of the cluster1 (C1) and 2 (C2) identified as PaPE-1 regulated high-fat genes. In C1, there are 425 genes whose expression were found stimulated in OA but not in the OA+PaPE-1 treatment. In C2, there are 646 genes whose expression were found suppressed in the OA but restored by OA+PaPE-1 treatment. (C) Venn diagram analysis. […] (D) Examples of OA-regulated genes. Some of the top functions of the involved genes are presented.

[2] = tested on: ERα recruitment to chromatin; test: ERα ChIP-Seq of MCF-7 cells treated with OA with or without PaPE-1; format: cell-based, human; conditions: 100 nM OA, 45 minutes
Procedure: FIG. 39. ERα chromatin binding sites induced by OA and the effect of PaPE-1 in reversing these changes in the ERα cistrome. (A) Recruitment of ERα to chromatin in the presence of PaPE-1, OA and OA+PaPE-1. MCF-7 cells were treated with Veh and 100 nM OA with or without 1 μM PaPE-1 for 45 minutes. ERα-DNA complexes were pulled down using ERα antibodies. Three biological replicates were pooled and sequenced. Clustering of ERα binding sites in treatments of Veh (0.1% EtOH), PaPE-1 (1 μM), OA (100 nM), and OA (100 nM)+PaPE-1 (1 t.M) was done using seqMINER software. (B) Validation of effect of OA and PaPE-1 on the ERα binding at regulatory region of PgR, CISH and SREBP1C using ChIP-qPCR. MCF-7 cells were treated with Veh and 100 nM OA with or without 1 μM PaPE-1 for 45 minutes. ERα-DNA complexes were pulled down using ERα antibodies. Recruitment of ERα to PgR (chr11:100,904,522-100,905,458), CISH (chr3:50,642,336-50,643,191) and SREBP1 (chr17:17,743,329-17,743,912) sites were quantified by Q-PCR. The experiment was repeated 3 times with at least duplicates each time. Mean±SEM is plotted. […] Mean±SEM is plotted. (C) Binding sites whose ERα occupation increased upon OA treatment (cluster marked by * in B). The ERα binding sites were separated into four clusters of characteristic patterns: C1, C2, C3 and C4. […]

MCF-7 cells [3] = test: oleic acid (OA)-induced MCF-7 cell proliferation, WST1
Procedure: Screening of FFAs for stimulating effects on cell proliferation. […] FFA mix contains all the single free fatty acids tested in this experiment. Lipid mix (mixture of cholesterol and fatty acids) was purchased from Sigma. Six replicates were used in each assay, and the experiment was repeated twice. […] Mean±SEM is plotted.
(D) OA effect on MCF-7 cell proliferation with and without PaPE-1. Dose-response of OA on cell proliferation was tested alone or in combination with and without PaPE-1 (1 μM) for 6 days before WST1 assay. The experiment has six technical replicates and was repeated twice. A two-way analysis of variance (ANOVA) model was fitted to assess the contribution of OA dose and inhibitor (Ctrl, and PaPE-1) treatment on MCF-7 cell proliferation. When the main effects were statistically significant at α=0.05, pairwise t-tests with a Bonferroni correction were employed to identify if treatment were statistically different from each other. **** p<0.0001. Mean±SEM is plotted. […] In the above cell proliferation experiments, MCF-7 cells were treated in whole growth medium adding the designated compounds. The treatment went for 6 days and OD at 450 was measured by WST1 assay. […] The experiment is repeated twice. A two-way analysis of variance (ANOVA) model was fitted to assess the contribution of ligand (Veh or OA) and inhibitor (Ctrl, 4-OH-Tam, Fulv, RAD001 and PaPE-1) treatment on MCF-7 cell proliferation. When the main effects were statistically significant at α=0.05, pairwise t-tests with a Bonferroni correction were employed to identify if treatment were statistically different from each other. **** p<0.0001. Mean±SEM is plotted. […] The MCF-7 cells were treated with Veh, 1 μM 4-OH-tam, 1 μM Fulv, and 1 μM PaPE-1 for six days before WST-1 assay in serum from 63 obese individuals (Left) and in standard cell culture (Right).

mTOR pathway = test: OA-induced mTOR pathway activation in MCF-7 cells, western blot; conditions: 100 nM OA, time course
ERα-SRC3 interaction = test: tr-FRET assay of SRC3 coactivator binding to ERα; format: biochemical; conditions: 10 nM E2-ERα complex
From the text: Using a time-resolved Forster resonance energy transfer (tr-FRET) assay, the binding of the steroid receptor coactivator 3 (SRC3) to ERu was monitored.

PgR gene = test: PgR (genomic gene) mRNA expression, qPCR; conditions: MCF-7 cells; 1 μM PaPE or 10 nM E2 for 4 h where stated; versus vehicle or E2
From the text: Quantitation of signal intensities is shown in panel at the right.

LRRC54 gene vs PgR gene = test: preferential activation of non-genomic (LRRC54) over genomic (PgR) gene; conditions: relative to activation by E2
MCF-7 cells [4] = test: MCF-7 proliferation in serum from obese individuals or standard culture; conditions: 1 μM, six days
Procedure: In the above cell proliferation experiments, MCF-7 cells were treated in whole growth medium adding the designated compounds. The treatment went for 6 days and OD at 450 was measured by WST1 assay. […] The MCF-7 cells were treated with Veh, 1 μM 4-OH-tam, 1 μM Fulv, and 1 μM PaPE-1 for six days before WST-1 assay in serum from 63 obese individuals (Left) and in standard cell culture (Right). […] A one-way analysis of variance (ANOVA) model was fitted to assess the contribution of ligands on serum- or standard cell culture medium-induced MCF-7 cell proliferation. When the main effects were statistically significant at α=0.05, pairwise t-tests with a Bonferroni correction were employed to identify if treatment were statistically different from each other. **** p<0.0001. Mean±SEM is plotted.

Structure (SMILES) | genes downregulated by OA (MCF-7 cells [1]) | genes upregulated by OA (MCF-7 cells [1]) | ERα recruitment to chromatin upon OA [2] | MCF-7 cell proliferation with free fatty acid (MCF-7 cells [3]; 1 and 100 nM) | mTOR pathway activation by OA (mTOR pathway) | reversal of the E2-promoted ER-SRC3 interaction (ERα-SRC3 interaction) | PgR (genomic gene) mRNA expression, in words (PgR gene) | OA-induced MCF-7 cell proliferation with added agent (MCF-7 cells [3]; 100 nM OA, agent 1 μM, 6 days, listed as 4-OH-Tamoxifen) | preference for activation of the non-genomic pathway (LRRC54 over PgR), in words (LRRC54 gene vs PgR gene) | inhibition of MCF-7 proliferation in normal cell culture conditions (MCF-7 cells [4])
CCCCCCCC/C=C\CCCCCCCC(=O)O [OA, oleic acid] | about 500 genes | about 350 genes | recruited to novel chromatin sites upon OA treatment | very efficient in increasing cell proliferation in MCF-7 cells | robust activation of mTOR pathway downstream targets Akt, S6 and 4EBP1 |  |  |  |  | 
CC/C(=C(\c1ccc(O)cc1)c1ccc(OCCN(C)C)cc1)c1ccccc1 [OH-Tam, trans-hydroxytamoxifen, reference compound] |  |  |  |  |  | reversed the ER-SRC3 interaction promoted by E2 | slight stimulation of the PgR gene | blocked OA-induced cell proliferation; also recorded: suppressed | Neither Raloxifene (RAL) nor hydroxytamoxifen (TOT) show selective activation of the non-genomic gene LRRC54 | better agents
